The source of these data is US9963452B2, “Methods, compounds, and compositions for inhibition of ROS” (AUGUSTA PHARMACEUTICALS INC., priority 2013, dated 2018).

Molecules are shown by their SMILES.

What all share (format): cell-based
Experiment [1] deals with U138 glioblastoma cell line. Kind of experiment: In-vitro cell survival assay (Alamar blue), U138. The note with it: U138, one day after compound addition. The method in brief:
(§1)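 Cells seeded at 2-5×10^3 per well, grown 2 days, then exposed to compound at 100, 10 or 1 uM (0.5% DMSO final) for one day. Alamar blue redox dye read as proliferation/viability, normalized to vehicle wells as percent decrease and converted to EC50.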
A general note: The colour change of resazurin is a common sign of viable cells or microbes.

In experiment [2] the test system is U118 glioblastoma cell line. Kind of experiment: In-vitro cell survival assay (Alamar blue), U118. The note with it: U118, one day after compound addition. On the procedure:
Five tumor-derived cell lines were treated with the ROS inhibitor compounds and cell survival was monitored to determine the cancer prohibition effects of the compounds. The cell lines included HeLa, a cervical cancer cell line, and four glioblastoma cell lines U138, U87, LN18, and U118. The basic protocol for the in-vitro cell survival assay is the same for all five cell lines. In particular, the cells were seeded in 96-well plates at 2-5×10^3 cells/well (cell line dependent) in culture medium. The cells were grown for 2 days before the compounds were dissolved in DMSO and added to final concentrations of 100 uM, 10 uM, or 1 uM (DMSO final concentration 0.5%). The cell culture was then assayed one day after the addition of the compounds. The assay used Alamar blue as a redox-sensitive dye that interrogates mitochondrial fitness of cells, and these assays provided a readout for cell proliferation and viability. The raw values were normalized to an average of several vehicle control wells and are presented as percent decrease in proliferation/viability, which is converted to half maximal effective concentration (EC50) values.

For experiment [3], the system named is U87 glioblastoma cell line. Kind of experiment: In-vitro cell survival assay (Alamar blue), U87. The conditions noted are these: U87, one day after compound addition. A digest of the protocol: as §1
In experiment [4] the test system is LN18 glioblastoma cell line. Kind of experiment: In-vitro cell survival assay (Alamar blue), LN18. The note with it: LN18, one day after compound addition. The method in brief: as §1
Experiment [5] relates to HeLa cervical cancer cell line. Kind of experiment: In-vitro cell survival assay (Alamar blue), HeLa. The note with it: one day after compound addition. The method in brief:
as §1

The term EC50 denotes the concentration that produces a half-maximal response. A low value points to higher potency in that assay. For `COc1ccc(C(NC(=O)c2[nH]nc(-c3ccccc3)c2C)c2ccncc2)cc1` (centres unmarked), the concentration giving a half-maximal response (EC50) is > 100 µM in experiment [1]; > 100 µM in experiment [2]; > 100 µM in experiment [3]; 59 µM in experiment [4]; > 100 µM in experiment [5].
For the compound `O=C(c1ccccc1)n1nc(-c2ccco2)nc1NCc1ccc(Cl)cc1` [drawing 432], the EC50 is > 100 µM in experiment [1] (24 h); > 100 µM in experiment [2] (24 h); > 100 µM in experiment [3] (24 h); > 100 µM in experiment [4] (Homo sapiens, LN-18, 24 h); > 100 µM in experiment [5] (Homo sapiens, 24 h).
In the case of `COc1cccc(Nc2cc(Nc3cccc(C(=O)N4CCN(C(C)=O)CC4)c3)nc(N)n2)c1` [drawing 377], the EC50 is > 100 µM in experiment [1] (24 h); 91 µM in experiment [2] (24 h); > 100 µM in experiment [3] (24 h); 64 µM in experiment [4] (Homo sapiens, LN-18, 24 h); > 100 µM in experiment [5] (Homo sapiens, 24 h).
Turning to `Cc1cccc(Nc2nccc(Nc3cccc(C(=O)NCc4ccccc4F)c3)n2)c1` [drawing 412], the concentration giving a half-maximal response (EC50) in experiment [1] (24 h) amounted to 34 µM; in experiment [2] (24 h), 16 µM; in experiment [3] (24 h) it was 11 µM; in experiment [4] (Homo sapiens, LN-18, 24 h), 6 µM; in experiment [5] (Homo sapiens, 24 h), 9 µM.
In the same order, the values of `O=C(NCCc1ccccc1)c1cccc(Nc2nccc(Nc3ccc4ncsc4c3)n2)c1` [drawing 418] are 38 µM, 24 µM, 13 µM, 11 µM and 15 µM.
In the case of `Clc1ccc(CNc2cc(-c3ccccc3)ncn2)cc1` [drawing 383], the EC50 in experiment [1] (24 h) is 62 µM; in experiment [2] (24 h), 33 µM; in experiment [3] (24 h) it was 38 µM; in experiment [4] (Homo sapiens, LN-18, 24 h) it was 62 µM; in experiment [5] (Homo sapiens, 24 h), > 100 µM.
Take `Cc1cccc(Nc2ccnc(Nc3cccc(C(=O)N4CC=CCC4)c3)n2)c1` [drawing 371]: the EC50 in experiment [1] (24 h) was > 100 µM; in experiment [2] (24 h) it was 28 µM; in experiment [3] (24 h) it was 17 µM; in experiment [4] (Homo sapiens, LN-18, 24 h) it was 13 µM; in experiment [5] (Homo sapiens, 24 h), 25 µM.
Taken in the same sequence, the figures for `COc1cccc(Nc2nc(N)c(C(=O)c3c(C)[nH]c4ccccc34)s2)c1` [drawing 384] were 19 µM, 16 µM, 15 µM, 10 µM and 72 µM.
In the same order, the values of `O=C(c1cccc(Nc2nccc(Nc3ccc4ncsc4c3)n2)c1)N1CCCCC1` [drawing 438] are > 100 µM, 52 µM, 20 µM, 12 µM and 19 µM.
Taken in the same sequence, the figures for `Cc1cccc(Nc2nccc(Nc3cccc(C(=O)NCCN4CCOCC4)c3)n2)c1` [drawing 381] were 54 µM, 17 µM, 36 µM, 11 µM and 43 µM.
Consider `Cc1ccc(F)cc1S(=O)(=O)Nc1cccc(C(=O)OCC(=O)NC2CCCCC2)c1` [drawing 404], for which the concentration giving a half-maximal response (EC50) was > 100 µM in experiment [1] (24 h); > 100 µM in experiment [2] (24 h); 33 µM in experiment [3] (24 h); > 100 µM in experiment [4] (Homo sapiens, LN-18, 24 h); > 100 µM in experiment [5] (Homo sapiens, 24 h).
For `O=C(NNc1nc2ccccc2nc1Cc1ccccc1)c1cccc(Cl)c1` [drawing 366], the concentration for a half-maximal effect (EC50) in experiment [1] (24 h) is > 100 µM; in experiment [2] (24 h) it was > 100 µM; in experiment [3] (24 h), 25 µM; in experiment [4] (Homo sapiens, LN-18, 24 h), 22 µM; in experiment [5] (Homo sapiens, 24 h) it was > 100 µM.
On to `c1cc(Nc2cc(C3CC3)[nH]n2)nc(Nc2ccc(NCc3cc(C4OCCO4)c(C4OCCO4)s3)cc2)n1` [drawing 437], for which the EC50 in experiment [1] (24 h) was 14 µM; in experiment [2] (24 h) it was 18 µM; in experiment [3] (24 h), 13 µM; in experiment [4] (Homo sapiens, LN-18, 24 h) it was 14 µM; in experiment [5] (Homo sapiens, 24 h), 13 µM.
Take `Cn1c(=O)c2c(nc3n(CCO)c(-c4ccccc4)cn23)n(C)c1=O` [drawing 402]: the concentration for a half-maximal effect (EC50) is > 100 µM in experiment [1] (24 h); > 100 µM in experiment [2] (24 h); > 100 µM in experiment [3] (24 h); > 100 µM in experiment [4] (Homo sapiens, LN-18, 24 h); > 100 µM in experiment [5] (Homo sapiens, 24 h).
In the case of `CCN(CC)CCNC(=O)c1cccc(Nc2nccc(Nc3ccc4ncsc4c3)n2)c1` [drawing 373], the EC50 in experiment [1] (24 h) was 45 µM; in experiment [2] (24 h) it was 35 µM; in experiment [3] (24 h), 37 µM; in experiment [4] (Homo sapiens, LN-18, 24 h), 15 µM; in experiment [5] (Homo sapiens, 24 h), 15 µM.
On to `CCN(CCO)c1nc(Nc2ccc(F)cc2)c2cnn(-c3ccccc3)c2n1` [drawing 386], for which the 50% effective concentration (EC50) stood at 57 µM in experiment [1] (24 h); 58 µM in experiment [2] (24 h); 10 µM in experiment [3] (24 h); 7 µM in experiment [4] (Homo sapiens, LN-18, 24 h); 54 µM in experiment [5] (Homo sapiens, 24 h).
Regarding `CC(=O)N[C@@H]1CCN(C(=O)c2cccc(Nc3cc(N(C)c4cccc(C)c4)ncn3)c2)C1` [drawing 378], the EC50 in experiment [1] (24 h) is > 100 µM; in experiment [2] (24 h), > 100 µM; in experiment [3] (24 h), > 100 µM; in experiment [4] (Homo sapiens, LN-18, 24 h) it was > 100 µM; in experiment [5] (Homo sapiens, 24 h), > 100 µM.
Consider `Cc1cccc(Nc2nccc(Nc3cccc(C(=O)NCc4ccc(F)cc4)c3)n2)c1` [drawing 379], for which the concentration for a half-maximal effect (EC50) in experiment [1] (24 h) is 19 µM; in experiment [2] (24 h), 28 µM; in experiment [3] (24 h), 13 µM; in experiment [4] (Homo sapiens, LN-18, 24 h), 7 µM; in experiment [5] (Homo sapiens, 24 h), 13 µM.
On to `Cc1cccc(Nc2nccc(Nc3cccc(C(=O)NC4CCN(C)CC4)c3)n2)c1` [drawing 422], for which the EC50 in experiment [1] (24 h) was found to be 20 µM; in experiment [2] (24 h), 60 µM; in experiment [3] (24 h), 18 µM; in experiment [4] (Homo sapiens, LN-18, 24 h), 5 µM; in experiment [5] (Homo sapiens, 24 h), 25 µM.
In the same order, the values of `O=C(c1cccc(Nc2nccc(Nc3ccc4ncsc4c3)n2)c1)N1CCCCCC1` [drawing 421] are > 100 µM, 81 µM, 25 µM, 9 µM and 9 µM.
Take `C[C@H](O)CN(C[C@H](C)O)C(=O)c1cccc(Nc2nccc(Nc3ccc4ncsc4c3)n2)c1` [drawing 420]: the concentration for a half-maximal effect (EC50) turned out to be 19 µM in experiment [1] (24 h); 31 µM in experiment [2] (24 h); 21 µM in experiment [3] (24 h); 31 µM in experiment [4] (Homo sapiens, LN-18, 24 h); 14 µM in experiment [5] (Homo sapiens, 24 h).
`CC1=NNC(=O)/C1=C\c1cn(-c2ccccc2)nc1-c1ccccc1` [drawing 403]: the EC50 in experiment [1] (24 h) was 8 µM; in experiment [2] (24 h), 7 µM; in experiment [3] (24 h) it was 8 µM; in experiment [4] (Homo sapiens, LN-18, 24 h), 12 µM; in experiment [5] (Homo sapiens, 24 h), 20 µM.
In the case of `O=C(NCC1CCCCC1)c1cccc(Nc2nccc(Nc3ccc4ncsc4c3)n2)c1` [drawing 407], the concentration for a half-maximal effect (EC50) in experiment [1] (24 h) is > 100 µM; in experiment [2] (24 h) it was > 100 µM; in experiment [3] (24 h) it was 33 µM; in experiment [4] (Homo sapiens, LN-18, 24 h), 87 µM; in experiment [5] (Homo sapiens, 24 h) it was > 100 µM.
As for `Cc1ccc(Cn2c(NCc3nc4ccccc4n3C)nc3ccccc32)cc1` [drawing 355], the EC50 in experiment [1] (24 h) is > 100 µM; in experiment [2] (24 h), > 100 µM; in experiment [3] (24 h), > 100 µM; in experiment [4] (Homo sapiens, LN-18, 24 h) it was > 100 µM; in experiment [5] (Homo sapiens, 24 h), > 100 µM.
Consider `O=c1cc(Oc2ccccc2)c(-c2nc[nH]n2)nn1-c1ccccc1` [drawing 365], for which the EC50 in experiment [1] is > 100 µM; in experiment [2], > 100 µM; in experiment [3], 26 µM; in experiment [4], > 100 µM; in experiment [5] it was > 100 µM.
For `O=C(NCc1cccs1)c1cccc(Nc2nccc(Nc3ccc4ncsc4c3)n2)c1` [drawing 410], the EC50 in experiment [1] (24 h) was found to be 26 µM; in experiment [2] (24 h), 23 µM; in experiment [3] (24 h), 25 µM; in experiment [4] (Homo sapiens, LN-18, 24 h) it was 11 µM; in experiment [5] (Homo sapiens, 24 h) it was 9 µM.
Taken in the same sequence, the figures for `Cc1cccc(Nc2nccc(Nc3cccc(C(=O)N(C)CCCN(C)C)c3)n2)c1` [drawing 425] were > 100 µM, > 100 µM, 46 µM, 89 µM and 39 µM.
On to `COc1ccccc1C1C(C#N)=C(N)Oc2[nH]nc(C(F)(F)F)c21` (centres unmarked), for which the half-maximal effective concentration (EC50) in experiment [1] is 84 µM; in experiment [2], > 100 µM; in experiment [3], 80 µM; in experiment [4] it was 62 µM; in experiment [5] it was 90 µM.
Take `O=C(COc1ccccc1)NCC(c1cccs1)S(=O)(=O)c1ccc(Cl)cc1` (centres unmarked) [drawing 427]: the concentration giving a half-maximal response (EC50) was > 100 µM in experiment [1] (24 h); 45 µM in experiment [2] (24 h); 36 µM in experiment [3] (24 h); 83 µM in experiment [4] (Homo sapiens, LN-18, 24 h); > 100 µM in experiment [5] (Homo sapiens, 24 h).
With `COc1ccc(Nc2nc(N(C)CCO)nc3c2cnn3-c2ccccc2)cc1` [drawing 387], the EC50 in experiment [1] (24 h) was 9 µM; in experiment [2] (24 h), 8 µM; in experiment [3] (24 h), 11 µM; in experiment [4] (Homo sapiens, LN-18, 24 h) it was 6 µM; in experiment [5] (Homo sapiens, 24 h), 7 µM.
Taken in the same sequence, the figures for `Cc1cc(C)n(-c2cccc(C(=O)NC[C@H]3Cc4cc(Cl)cc(-c5cnccn5)c4O3)c2)n1` were > 100 µM, 96 µM, 94 µM, 64 µM and 70 µM.
